The target in assay [1] is T1, biotinylated wild-type menin and MLL-AF9 fusion protein (menin/MLL binding) (Homo sapiens, UniProt O00255).
T1 construct: made in house; host or cells: menin: E. coli; MLL-AF9-FLAG: HEK293 cells, used as cleared lysate
T1 sequence (O00255 1-610): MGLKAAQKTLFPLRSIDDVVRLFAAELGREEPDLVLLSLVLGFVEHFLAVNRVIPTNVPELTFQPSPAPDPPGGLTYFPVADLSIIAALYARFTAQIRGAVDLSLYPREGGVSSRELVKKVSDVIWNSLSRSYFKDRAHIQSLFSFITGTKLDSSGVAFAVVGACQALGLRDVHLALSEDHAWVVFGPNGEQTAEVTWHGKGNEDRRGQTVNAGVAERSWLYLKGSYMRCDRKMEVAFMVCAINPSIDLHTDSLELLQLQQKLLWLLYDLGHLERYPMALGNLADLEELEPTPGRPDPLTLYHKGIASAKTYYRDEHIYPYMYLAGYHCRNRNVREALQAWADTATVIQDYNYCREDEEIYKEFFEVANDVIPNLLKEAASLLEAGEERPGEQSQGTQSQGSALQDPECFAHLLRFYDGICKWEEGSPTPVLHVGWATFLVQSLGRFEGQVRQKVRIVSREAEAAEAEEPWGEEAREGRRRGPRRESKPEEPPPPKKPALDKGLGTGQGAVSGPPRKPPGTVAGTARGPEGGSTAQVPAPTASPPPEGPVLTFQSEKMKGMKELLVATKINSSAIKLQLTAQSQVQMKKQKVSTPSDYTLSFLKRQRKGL
Description: Assay 1: menin/MLL binding AlphaLISA assay, wild-type menin. Conditions: Table 30; column head does not say wild-type or mutated menin. Summed up: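 Compound was preincubated 30 min at room temperature with biotinylated menin (5 nM) and MLL-AF9-FLAG lysate from HEK293 cells, pH 7.4 buffer with 5% DMSO and DTT. Bead-based Alpha signal after 60 min with streptavidin donor and anti-FLAG acceptor beads; four-parameter logistic fit gave IC50.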
(In Alpha technology, singlet oxygen from a donor bead excites a nearby acceptor bead.)

Assay [2] relates to human acute monocytic leukemia cell line MV-4-11. The assay is described as follows: Assay 2: cell proliferation assay (ATP quantitation, CellTiter-Glo), MV-4-11. It is filed as cell-based. As to conditions: MV-4-11 cells. How it is done:
Potencies of inhibitor compounds against cell proliferation was assessed against the human acute monocytic leukemia cell line MV-4-11 (ATCC® CRL-9591™) based on ATP quantitation. MV-4-11 cells or toxicity control HL-60 cells (ATCC® CCL-240™) were incubated in 96-well tissue culture plates (1.67×10^4 cells in 200 μL culture media containing 10% FBS per well) with or without test compound for 72 h at 37° C., 5% CO2. After incubation, each well was mixed by pipetting and 95 μL from each well was transferred to a well in 96-well black OptiPlate® plates (PerkinElmer). An equal volume of CellTiter-Glo® Luminescent Cell Viability Assay reagent (Promega) was added to each well, followed by mixing for 5 min on an orbital plate shaker. Luminescence was measured on a Wallac EnVision 2104 Multilabel Reader (PerkinElmer) to quantitate ATP.

The term IC50 denotes the point on the concentration scale where inhibition reaches its midpoint. Low readings indicate inhibition by little substance, high ones a need for much substance. The term EC50 denotes the concentration needed to bring the measured effect to its halfway point.

Regarding `Cn1c(-c2cc(F)ccc2Oc2cncnc2N2CCC3(CCN(Cc4ccc5[nH]c(=O)[nH]c5c4)C3)C2)c(C2CC2)ccc1=O` (single isomer, unassigned) [Example 29A, 5-((7-(5-(2-(3-cyclopropyl-1-methyl-6-oxo-1,6-dihydropyridin-2-yl)-4-fluorophenoxy)pyrimidin-4-yl)-2,7-diazaspiro[4.4]nonan-2-yl)methyl)-1,3-dihydro-2H-benzo[d]imidazol-2-one], the half-maximal inhibitory concentration (IC50) in assay [1] was under 100 nM. Also, in assay [2] (Homo sapiens, MV4-11, 72 h), the EC50 is under 100 nM.

Regarding `Cn1c(-c2cc(F)ccc2Oc2cncnc2N2CCC3(CCN(Cc4ccc5[nH]c(=O)[nH]c5c4)C3)C2)c(C2CC2)ccc1=O` (single isomer, unassigned) [Example 29B, 5-((7-(5-(2-(3-cyclopropyl-1-methyl-6-oxo-1,6-dihydropyridin-2-yl)-4-fluorophenoxy)pyrimidin-4-yl)-2,7-diazaspiro[4.4]nonan-2-yl)methyl)-1,3-dihydro-2H-benzo[d]imidazol-2-one], the IC50 in assay [1] is under 100 nM. Moreover, the EC50 in assay [2] (72 h) lay in the range of 100 to 1000 nM.

In assay [1], `CC(C)c1ccccc1-c1cc(F)ccc1Oc1cncnc1N1CCC2(CCN(Cc3ccc4[nH]c(=O)[nH]c4c3)C2)C1` (single isomer, unassigned) [Example 41A, 5-((7-(5-((5-fluoro-2′-isopropyl-[1,1′-biphenyl]-2-yl)oxy)pyrimidin-4-yl)-2,7-diazaspiro[4.4]nonan-2-yl)methyl)-1H-benzo[d]imidazol-2(3H)-one] showed a concentration for half-maximal inhibition (IC50) of under 100 nM. The molecule further came in with a half-maximal effective concentration (EC50) in assay [2] (Homo sapiens, MV4-11, 72 h) of under 100 nM.

In the case of `CC(C)c1ccccc1-c1cc(F)ccc1Oc1cncnc1N1CCC2(CCN(Cc3ccc4[nH]c(=O)[nH]c4c3)C2)C1` (single isomer, unassigned) [Example 41B, 5-((7-(5-((5-fluoro-2′-isopropyl-[1,1′-biphenyl]-2-yl)oxy)pyrimidin-4-yl)-2,7-diazaspiro[4.4]nonan-2-yl)methyl)-1H-benzo[d]imidazol-2(3H)-one], in assay [1], the IC50 was under 100 nM. The same molecule yielded an EC50 in assay [2] (72 h) of under 100 nM.

The molecule `N#Cc1ccc(-c2cc(F)ccc2Oc2cncnc2N2CCC3(CCN(Cc4ccc5[nH]c(=O)[nH]c5c4)C3)C2)c(C2CC2)c1` (single isomer, unassigned) [Example 42A, 2-cyclopropyl-5′-fluoro-2′-((4-(7-((2-oxo-2,3-dihydro-1H-benzo[d]imidazol-5-yl)methyl)-2,7-diazaspiro[4.4]nonan-2-yl)pyrimidin-5-yl)oxy)-[1,1′-biphenyl]-4-carbonitrile] had an IC50 in assay [1] of under 100 nM. Further, the concentration giving a half-maximal response (EC50) in assay [2] (Homo sapiens, MV4-11, 72 h) was under 100 nM.

Turning to `N#Cc1ccc(-c2cc(F)ccc2Oc2cncnc2N2CCC3(CCN(Cc4ccc5[nH]c(=O)[nH]c5c4)C3)C2)c(C2CC2)c1` (single isomer, unassigned) [Example 42B, 2-cyclopropyl-5′-fluoro-2′-((4-(7-((2-oxo-2,3-dihydro-1H-benzo[d]imidazol-5-yl)methyl)-2,7-diazaspiro[4.4]nonan-2-yl)pyrimidin-5-yl)oxy)-[1,1′-biphenyl]-4-carbonitrile], the concentration for half-maximal inhibition (IC50) in assay [1] is under 100 nM. The half-maximal effective concentration (EC50) in assay [2] (72 h) was under 100 nM.

Regarding `CC(O)c1ccccc1-c1cc(F)ccc1Oc1cncnc1N1CCC2(CCN(Cc3ccc4[nH]c(=O)[nH]c4c3)C2)C1` (single isomer, unassigned) [Example 60A, 5-((7-(5-((5-fluoro-2′-(1-hydroxyethyl)-[1,1′-biphenyl]-2-yl)oxy)pyrimidin-4-yl)-2,7-diazaspiro[4.4]nonan-2-yl)methyl)-1H-benzo[d]imidazol-2(3H)-one], the IC50 in assay [1] is under 100 nM. The molecule further returned a concentration for a half-maximal effect (EC50) in assay [2] (Homo sapiens, MV4-11, 72 h) of under 100 nM.

The molecule `Cn1c(-c2cc(F)ccc2Oc2cncnc2N2CCC3(CCN(Cc4ccc5c(c4)[nH]c(=O)n5CCO)C3)C2)c(C2CC2)ccc1=O` (single isomer, unassigned) [Example 81A, 5-((7-(5-(2-(3-cyclopropyl-1-methyl-6-oxo-1,6-dihydropyridin-2-yl)-4-fluorophenoxy)pyrimidin-4-yl)-2,7-diazaspiro[4.4]nonan-2-yl)methyl)-1-(2-hydroxyethyl)-1H-benzo[d]imidazol-2(3H)-one] had an IC50 in assay [1] of under 100 nM. This molecule also showed a concentration for a half-maximal effect (EC50) in assay [2] (Homo sapiens, MV4-11, 72 h) of 100 to 1000 nM.

Regarding `Cn1c(-c2cc(F)ccc2Oc2cncnc2N2CCC3(CCN(Cc4ccc5c(c4)[nH]c(=O)n5CCO)C3)C2)c(C2CC2)ccc1=O` (single isomer, unassigned) [Example 81B, 5-((7-(5-(2-(3-cyclopropyl-1-methyl-6-oxo-1,6-dihydropyridin-2-yl)-4-fluorophenoxy)pyrimidin-4-yl)-2,7-diazaspiro[4.4]nonan-2-yl)methyl)-1-(2-hydroxyethyl)-1H-benzo[d]imidazol-2(3H)-one], the concentration for half-maximal inhibition (IC50) in assay [1] was under 100 nM. Further, the EC50 in assay [2] (72 h) is under 100 nM.

Consider `CC(C)c1ncncc1-c1cc(F)ccc1Oc1cncnc1N1CC2(CC(NC3CCC(C)(C#N)CC3)C2)C1` (single isomer, unassigned) [Example 148A, 4-((2-(5-(4-fluoro-2-(4-isopropylpyrimidin-5-yl)phenoxy)pyrimidin-4-yl)-2-azaspiro[3.3]heptan-6-yl)amino)-1-methylcyclohexane carbonitrile], for which the half-inhibitory concentration (IC50) in assay [1] was under 100 nM. The EC50 in assay [2] (Homo sapiens, MV4-11, 72 h) was 100 to 1000 nM.

For the molecule `CC(C)c1ncncc1-c1cc(F)ccc1Oc1cncnc1N1CC2(CC(NC3CCC(C)(C#N)CC3)C2)C1` (single isomer, unassigned) [Example 148B, 4-((2-(5-(4-fluoro-2-(4-isopropylpyrimidin-5-yl)phenoxy)pyrimidin-4-yl)-2-azaspiro[3.3]heptan-6-yl)amino)-1-methylcyclohexane carbonitrile], in assay [1], the IC50 is under 100 nM. Also, the EC50 in assay [2] (72 h) is 100 to 1000 nM.

The molecule `CC(C)c1ncncc1-c1cc(F)ccc1Oc1cncnc1N1CCC2(CCN(Cc3ccc4[nH]c(=O)[nH]c4c3)C2)C1` (single isomer, unassigned) [Example 160A, 5-((7-(5-(4-fluoro-2-(4-isopropylpyrimidin-5-yl)phenoxy)pyrimidin-4-yl)-2,7-diazaspiro[4.4]nonan-2-yl)methyl)-1,3-dihydro-2H-benzo[d]imidazol-2-one] registered a 50% inhibitory concentration (IC50) in assay [1] of under 100 nM. Moreover, the EC50 in assay [2] (Homo sapiens, MV4-11, 72 h) was under 100 nM.

Take `CC(C)c1ncncc1-c1cc(F)ccc1Oc1cncnc1N1CCC2(CCN(Cc3ccc4[nH]c(=O)[nH]c4c3)C2)C1` (single isomer, unassigned) [Example 160B, 5-((7-(5-(4-fluoro-2-(4-isopropylpyrimidin-5-yl)phenoxy)pyrimidin-4-yl)-2,7-diazaspiro[4.4]nonan-2-yl)methyl)-1,3-dihydro-2H-benzo[d]imidazol-2-one]: the half-maximal inhibitory concentration (IC50) in assay [1] is under 100 nM. Further, the EC50 in assay [2] (72 h) was under 100 nM.

`CC(C)N(C)C(=O)c1cc(F)ccc1Oc1cncnc1N1CCC2(CCN(Cc3ccc4[nH]c(=O)[nH]c4c3)C2)C1` (single isomer, unassigned) [Example 183A, 5-fluoro-N-isopropyl-N-methyl-2-((4-(7-((2-oxo-2,3-dihydro-1H-benzo[d]imidazol-5-yl)methyl)-2,7-diazaspiro[4.4]nonan-2-yl)pyrimidin-5-yl)oxy)benzamide] displayed a concentration for half-maximal inhibition (IC50) in assay [1] of under 100 nM. The molecule further displayed a 50% effective concentration (EC50) in assay [2] (Homo sapiens, MV4-11, 72 h) of under 100 nM.

Molecule `CC(C)N(C)C(=O)c1cc(F)ccc1Oc1cncnc1N1CCC2(CCN(Cc3ccc4[nH]c(=O)[nH]c4c3)C2)C1` (single isomer, unassigned) [Example 183B, 5-fluoro-N-isopropyl-N-methyl-2-((4-(7-((2-oxo-2,3-dihydro-1H-benzo[d]imidazol-5-yl)methyl)-2,7-diazaspiro[4.4]nonan-2-yl)pyrimidin-5-yl)oxy)benzamide] came in with an IC50 in assay [1] of under 100 nM. The molecule also displayed a 50% effective concentration (EC50) in assay [2] (72 h) of under 100 nM.

In assay [1], `CC(C)n1nccc1-c1cc(F)ccc1Oc1cncnc1N1CCC2(CCN(Cc3ccc4[nH]c(=O)[nH]c4c3)C2)C1` (single isomer, unassigned) [Example 197A, 5-((7-(5-(4-fluoro-2-(1-isopropyl-1H-pyrazol-5-yl)phenoxy)pyrimidin-4-yl)-2,7-diazaspiro[4.4]nonan-2-yl)methyl)-1,3-dihydro-2H-benzo[d]imidazol-2-one] came in with a 50% inhibitory concentration (IC50) of under 100 nM. This molecule also showed a concentration for a half-maximal effect (EC50) in assay [2] (Homo sapiens, MV4-11, 72 h) of under 100 nM.

The values above are taken from patent publication US12312359B2 (Vitae Pharmaceuticals, LLC, priority 2016, dated 2025).
